How the values were obtained:
Assay in all cases: relative viability (nuclei count vs DMSO), 5 days (fraction); higher = more cells survive
Linifanib + Olaparib = compound: Cc1ccc(F)c(NC(=O)Nc2ccc(-c3cccc4[nH]nc(N)c34)cc2)c1 [Linifanib] + O=C(c1cc(Cc2n[nH]c(=O)c3ccccc23)ccc1F)N1CCN(C(=O)C2CC2)CC1 [Olaparib] (partner 8 µM)
Outline: (§1)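 Values are medians from duplicate plates. Each reflects relative viability, defined as the nuclei count of treated wells over that of vehicle wells. Lung cancer cell lines in 1536-well plates were pin-tool dosed one day after seeding with one drug alone or with a fixed anchor-drug dose plus five library-drug doses (not always all listed) in √10 steps, then fixed, stained and imaged at 4× after 5 days.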

Linifanib + Decitabine = compound: Cc1ccc(F)c(NC(=O)Nc2ccc(-c3cccc4[nH]nc(N)c34)cc2)c1 [Linifanib] + Nc1ncn([C@H]2C[C@H](O)[C@@H](CO)O2)c(=O)n1 [Decitabine] (partner 2 µM)
Outline: as §1

Linifanib + Vorinostat = compound: Cc1ccc(F)c(NC(=O)Nc2ccc(-c3cccc4[nH]nc(N)c34)cc2)c1 [Linifanib] + O=C(CCCCCCC(=O)Nc1ccccc1)NO [Vorinostat] (partner 1 µM)
Outline: as §1

Linifanib + AZD7762 = compound: Cc1ccc(F)c(NC(=O)Nc2ccc(-c3cccc4[nH]nc(N)c34)cc2)c1 [Linifanib] + NC(=O)Nc1cc(-c2cccc(F)c2)sc1C(=O)N[C@H]1CCCNC1 [AZD7762] (partner 0.2 µM)
Outline: as §1

Linifanib + Navitoclax = compound: Cc1ccc(F)c(NC(=O)Nc2ccc(-c3cccc4[nH]nc(N)c34)cc2)c1 [Linifanib] + CC1(C)CCC(c2ccc(Cl)cc2)=C(CN2CCN(c3ccc(C(=O)NS(=O)(=O)c4ccc(N[C@H](CCN5CCOCC5)CSc5ccccc5)c(S(=O)(=O)C(F)(F)F)c4)cc3)CC2)C1 [Navitoclax] (partner 0.5 µM)
Outline: as §1

Linifanib + Bortezomib = compound: Cc1ccc(F)c(NC(=O)Nc2ccc(-c3cccc4[nH]nc(N)c34)cc2)c1 [Linifanib] + CC(C)C[C@H](NC(=O)[C@H](Cc1ccccc1)NC(=O)c1cnccn1)B(O)O [Bortezomib] (partner 0.002 µM)
Outline: as §1

| Cell Line | relative viability (Linifanib + Olaparib; first compound 0.03162 µM) | relative viability (Linifanib + Olaparib; first compound 0.1 µM) | relative viability (Linifanib + Olaparib; first compound 0.3162 µM) | relative viability (Linifanib + Decitabine; first compound 0.03162 µM) | relative viability (Linifanib + Decitabine; first compound 0.1 µM) | relative viability (Linifanib + Decitabine; first compound 0.3162 µM) | relative viability (Linifanib + Vorinostat; first compound 0.03162 µM) | relative viability (Linifanib + Vorinostat; first compound 0.1 µM) | relative viability (Linifanib + Vorinostat; first compound 0.3162 µM) | relative viability (Linifanib + AZD7762; first compound 0.03162 µM) | relative viability (Linifanib + AZD7762; first compound 0.1 µM) | relative viability (Linifanib + AZD7762; first compound 0.3162 µM) | relative viability (Linifanib + Navitoclax; first compound 0.03162 µM) | relative viability (Linifanib + Navitoclax; first compound 0.1 µM) | relative viability (Linifanib + Navitoclax; first compound 0.3162 µM) | relative viability (Linifanib + Bortezomib; first compound 0.03162 µM) | relative viability (Linifanib + Bortezomib; first compound 0.1 µM) | relative viability (Linifanib + Bortezomib; first compound 0.3162 µM) |
| --- | --- | --- | --- | --- | --- | --- | --- | --- | --- | --- | --- | --- | --- | --- | --- | --- | --- | --- |
| NCI-H1993 | 1.03 | 1.13 | 0.963 | 0.631 | 0.654 | 0.59 | 1.08 | 0.958 | 0.825 | 0.974 | 0.894 | 0.831 | 0.806 | 1.01 | 0.971 | 1.1 | 1.39 | 1.2 |
| NCI-H2085 | 0.727 | 0.803 | 0.739 | 0.535 | 0.632 | 0.573 | 0.854 | 0.832 | 0.792 | 1.08 | 0.943 | 0.974 | 1.04 | 1.12 | 1.11 | 1.07 | 1.06 | 0.971 |
| NCI-H2087 | 0.618 | 0.764 | 0.598 | 0.31 | 0.248 | 0.268 | 0.854 | 0.695 | 0.598 | 1.33 | 1.45 | 1.32 | 0.959 | 1.08 | 0.95 | 1.06 | 0.608 | 0.849 |
| NCI-H2126 | 0.986 | 0.912 | 0.9 | 0.58 | 0.538 | 0.575 | 0.797 | 0.859 | 0.873 | 1.02 | 1.06 | 0.983 | 0.836 | 0.838 | 0.816 | 1.05 | 1.1 | 1.14 |
| NCI-H2347 | 0.629 | 0.646 | 0.565 | 0.622 | 0.616 | 0.598 | 0.73 | 0.773 | 0.665 | 0.822 | 0.803 | 0.653 | 0.826 | 1.01 | 0.733 | 1.11 | 1.16 | 0.778 |
| NCI-H2405 | 0.94 | 0.835 | 0.828 | 0.766 | 0.747 | 0.756 | 0.988 | 1.05 | 0.951 | 0.71 | 0.777 | 0.803 | 0.889 | 0.88 | 0.754 | 1.05 | 0.958 | 0.957 |
| NCI-H3122 | 0.641 | 0.637 | 0.61 | 0.442 | 0.418 | 0.487 | 1.12 | 1.09 | 0.927 | 1.01 | 1.04 | 0.977 | 1.02 | 1.04 | 1.01 | 1.01 | 1 | 0.989 |
| PC-3 [JPC-3] | 1.09 | 1.14 | 1.13 | 0.766 | 0.792 | 0.847 | 0.671 | 0.747 | 0.775 | 0.796 | 0.856 | 0.776 | 0.878 | 0.826 | 0.77 | 0.728 | 0.805 | 0.77 |
| PC-14 | 0.353 | 0.231 | 0.256 | 0.231 | 0.252 | 0.206 | 0.784 | 0.83 | 0.768 | 0.377 | 0.491 | 0.262 | 0.975 | 0.91 | 0.947 | 0.924 | 0.989 | 0.746 |
